Test results reported in patent publication US9428507B2, “Compounds for the treatment of malaria” (The Broad Institute, Inc., priority 2013, dated 2016).

Each compound was assayed on Dd2 strain of P. falciparum (assay: Activity against the Dd2 strain of P. falciparum (SYBR Green I, 72-h incubation)). Conditions: Plasmodium falciparum, DD2, 72 h, read-out: EC^50 Dd2.
Assay type: cell-based
Outline: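 Dd2 parasites at 1% parasitemia and 1.0% hematocrit in albumax II screening medium, 72 h at 37° C under 93% N2/4% CO2/3% O2; final DMSO 0.125%. Growth read as SYBR Green I fluorescence (485/530 nm) after lysis and 24 h staining. 20 μM mefloquine defined background, DMSO baseline.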

Compound	EC50 [nM]
CCCC(=O)N1CCC2(CC1)CN(S(=O)(=O)c1ccc(C)cc1)[C@@H](CO)c1[nH]c3cc(OC)ccc3c12 [Compound 98, (R)-1-(1′-(hydroxymethyl)-7′-methoxy-2′-tosyl-1′,2′,3′,9′-tetrahydrospiro[piperidine-4,4′-pyrido[3,4-b]indol]-1-yl)butan-1-one]	98
COc1ccc2c3c(n(C)c2c1)[C@@H](CO)N(C(=O)C1CCCC1)CC31CN(C(=O)Nc2cccc(F)c2)C1 [Compound 99, (S)-2′-(cyclopentanecarbonyl)-N-(3-fluorophenyl)-1′-(hydroxymethyl)-7′-methoxy-9′-methyl-1′,2′,3′,9′-tetrahydrospiro [azetidine-3,4′-pyrido[3,4-b]indole]-1-carboxamide]	1880
COc1ccc2c3c(n(C)c2c1)[C@@H](CO)N(C(=O)C1CCCC1)CC31CCN(C(=O)Nc2cccc(F)c2)CC1 [Compound 100, (S)-2′-(cyclopentanecarbonyl)-N-(3-fluorophenyl)-1′-(hydroxymethyl)-7′-methoxy-9′-methyl-1′,2′,3′,9′-tetrahydrospiro[piperidine-4,4′-pyrido[3,4-b]indole]-1-carboxamide]	418
COc1ccc2c3c(n(C)c2c1)[C@@H](CO)N(C(=O)Nc1ccc(F)cc1)CC31CCN(Cc2ccccn2)CC1 [Compound 101, (S)-N-(4-fluorophenyl)-1′-(hydroxymethyl)-7′-methoxy-9′-methyl-1-(pyridin-2-ylmethyl)-3′,9′-dihydrospiro [piperidine-4,4′-pyrido[3,4-b]indole]-2′(1′H)-carboxamide]	2050
COc1ccc2c3c([nH]c2c1)[C@H](CO)NCC31CCN(C(=O)Nc2ccc3c(c2)OCO3)CC1 [Compound 102, (R)-N-(benzo[d] [1,3]dioxol-5-yl)-1′-(hydroxymethyl)-7′-methoxy-1′,2′,3′,9′-tetrahydrospiro [piperidine-4,4′-pyrido[3,4-b]indole]-1-carboxamide]	490
COc1ccc2c3c([nH]c2c1)[C@H](CO)N(C(=O)C1CCCCC1)CC31CCN(Cc2nccs2)CC1 [Compound 103, (R)-cyclohexyl (1′-(hydroxymethyl)-7′-methoxy-1-(thiazol-2-ylmethyl)spiro[piperidine-4,4′-pyrido[3,4-b]indol]-2′(1′H,3′H,9′H)-yl)methanone]	182
COc1ccc2c3c([nH]c2c1)[C@H](CO)N(C(=O)C1CCOCC1)CC31CCN(Cc2nccs2)CC1 [Compound 104, (R)-(1′-(hydroxymethyl)-7′-methoxy-1-(thiazol-2-ylmethyl)spiro[piperidine-4,4′-pyrido[3,4-b]indol]-2′(1′H,3′H,9′H)-yl)(tetrahydro-2H-pyran-4-yl)methanone]	467
COc1ccc2c3c([nH]c2c1)[C@H](CO)N(C(=O)Cc1ccccc1)CC31CCN(C(=O)Nc2ccccc2F)CC1 [Compound 105, (R)-N-(2-fluorophenyl)-1′-(hydroxymethyl)-7′-methoxy-2′-(2-phenylacetyl)-1′,2′,3′,9′-tetrahydrospiro [piperidine-4,4′-pyrido[3,4-b]indole]-1-carboxamide]	269
COc1ccc2c3c(n(C)c2c1)[C@@H](CO)N(C(=O)Nc1ccc(F)cc1)CC31CCN(Cc2cccnc2)CC1 [Compound 106, (S)-N-(4-fluorophenyl)-1′-(hydroxymethyl)-7′-methoxy-9′-methyl-1-(pyridin-3-ylmethyl)-3′,9′-dihydrospiro [piperidine-4,4′-pyrido[3,4-b]indole]-2′(1′H)-carboxamide]	727
CCC(=O)N1CCC2(CC1)CN(Cc1cccc(OC)c1)[C@@H](CO)c1[nH]c3cc(OC)ccc3c12 [Compound 107, (R)-1-(1′-(hydroxymethyl)-7′-methoxy-2′-(3-methoxybenzyl)-1′,2′,3′,9′-tetrahydrospiro [piperidine-4,4′-pyrido[3,4-b]indol]-1-yl)propan-1-one]	2210
COc1ccc2c3c(n(C)c2c1)[C@@H](CO)N(C(=O)c1ccc(F)cc1)CC31CN(C(=O)Nc2ccc(F)cc2)C1 [Compound 108, (S)-2′-(4-fluorobenzoyl)-N-(4-fluorophenyl)-1′-(hydroxymethyl)-7′-methoxy-9′-methyl-1′,2′,3′,9′-tetrahydrospiro[azetidine-3,4′-pyrido[3,4-b]indole]-1-carboxamide]	1220
COc1ccc2c3c(n(C)c2c1)[C@@H](CO)N(CC1CCCCC1)CC31CCN(Cc2nccs2)CC1 [Compound 109, (S)-(2′-(cyclohexylmethyl)-7′-methoxy-9′-methyl-1-(thiazol-2-ylmethyl)-1′,2′,3′,9′-tetrahydrospiro [piperidine-4,4′-pyrido[3,4-b]indol]-1′-yl)methanol]	1030
COc1ccc2c3c(n(C)c2c1)[C@@H](CO)N(C(=O)C1CCC1)CC31CN(C(=O)Nc2cccc(F)c2)C1 [Compound 110, (S)-2′-(cyclobutanecarbonyl)-N-(3-fluorophenyl)-1′-(hydroxymethyl)-7′-methoxy-9′-methyl-1′,2′,3′,9′-tetrahydrospiro [azetidine-3,4′-pyrido[3,4-b]indole]-1-carboxamide]	779
COc1ccc2c3c(n(C)c2c1)[C@H](CO)N(CC1CCOCC1)CC31CCN(Cc2nccs2)CC1 [Compound 112, (R)-(7′-methoxy-9′-methyl0-2′-((tetrahydro-2H-pyran-4-yl)methyl)-1-(thiazol-2-ylmethyl)-1′,2′,3′,9′-tetrahydrospiro [piperidine-4,4′-pyrido [3,4-b]indol]-1′-yl) methanol]	1100
CCC(=O)N1CC2(CCN(C(=O)Nc3ccccc3F)CC2)c2c([nH]c3cc(OC)ccc23)[C@H]1CO [Compound 113, (S)-N-(2-fluorophenyl)-1′-(hydroxymethyl)-7′-methoxy-2′-propionyl-1′,2′,3′,9′-tetrahydrospiro [piperidine-4,4′-pyrido[3,4-b]indole]-1-carboxamide]	1100
COc1ccc2c3c(n(C)c2c1)[C@H](CO)N(C(=O)Nc1ccc(F)cc1)CC31CCN(S(=O)(=O)c2cccc(F)c2)CC1 [Compound 114, (R)-N-(4-fluorophenyl)-1-((3-fluorophenyl)sulfonyl)-1′-(hydroxymethyl)-7′-methoxy-9′-methyl-3′,9′-dihydrospiro [piperidine-4,4′-pyrido[3,4-b]indole]-2′(1′H)-carboxamide]	951
COc1ccc2c3c(n(C)c2c1)[C@@H](CO)N(C(=O)c1ccccc1)CC31CCN(C(=O)c2ccccc2)CC1 [Compound 115, (S)-(1′-(hydroxymethyl)-7′-methoxy-9′-methylspiro [piperidine-4,4′-pyrido[3,4-b]indol]-1,2′(1′ H,3′H,9′H)-diyl)bis(phenylmethanone)]	1040
CCC(=O)N1CCC2(CC1)CN(S(=O)(=O)c1ccccc1)[C@@H](CO)c1[nH]c3cc(OC)ccc3c12 [Compound 116, (R)-1-(1′-(hydroxymethyl)-7′-methoxy-2′-(phenylsulfonyl)-1′,2′,3′,9′-tetrahydrospiro [piperidine-4,4′-pyrido[3,4-b]indol]-1-yl) propan-1-one]	1470
COc1ccc2c3c(n(C)c2c1)[C@H](CO)N(C(=O)Nc1ccc(F)cc1)CC31CCN(Cc2cccnc2)CC1 [Compound 117, (R)-N-(4-fluorophenyl)-1′-(hydroxymethyl)-7′-methoxy-9′-methyl-1-(pyridin-3-ylmethyl)-3′,9′-dihydrospiro[piperidine-4,4′-pyrido[3,4-b]indole]-2′(1′H)-carboxamide]	1610
CCC(=O)N1CCC2(CC1)CN(Cc1cc(F)ccc1F)[C@H](CO)c1[nH]c3cc(OC)ccc3c12 [Compound 118, (S)-1-(2′-(2,5-difluorobenzyl)-1′-(hydroxymethyl)-7′-methoxy-1′,2′,3′,9′-tetrahydrospiro [piperidine-4,4′-pyrido[3,4-b]indol]-1-yl) propan-1-one]	1960
COc1ccc(S(=O)(=O)N2CCC3(CC2)CN(Cc2ccncc2)[C@H](CO)c2[nH]c4cc(OC)ccc4c23)cc1 [Compound 119, (S)-(7′-methoxy-1-((4-methoxyphenyl)sulfonyl)-2′-(pyridin-4-ylmethyl)-1′,2′,3′,9′-tetrahydrospiro [piperidine-4,4′-pyrido[3,4-b]indol]-1′-yl) methanol]	1720
CCCC(=O)N1CC2(C1)CN(S(=O)(=O)c1ccc(C)cc1)[C@@H](CO)c1[nH]c3cc(OC)ccc3c12 [Compound 120, (R)-1-(1′-(hydroxymethyl)-7′-methoxy-2′-tosyl-1′,2′,3′,9′-tetrahydrospiro[azetidine-3,4′-pyrido[3,4-b]indol]-1-yl)butan-1-one]	1650
COc1ccc2c3c([nH]c2c1)[C@@H](CO)N(C(=O)CN(C)C)CC31CCN(CC2CCCCC2)CC1 [Compound 121, (S)-1-(1-(cyclohexylmethyl)-1′-(hydroxymethyl)-7′-methoxyspiro [piperidine-4,4′-pyrido[3,4-b]indol]-2′(1′H,3′H,9′H)-yl)-2-(dimethylamino) ethanone]	360
COc1ccc2c3c([nH]c2c1)[C@H](CO)N(Cc1ccccn1)CC31CCN(Cc2cccc(F)c2)CC1 [Compound 122]	421
COc1ccc2c3c(n(C)c2c1)[C@H](CO)N(C(=O)Nc1ccc(F)cc1)CC31CN(C(=O)c2ccc3c(c2)OCO3)C1 [Compound 123, (R)-1-(benzo[d] [1,3]dioxole-5-carbonyl)-N-(4-fluorophenyl)-1′-(hydroxymethyl)-7′-methoxy-9′-methyl-3′,9′-dihydrospiro [azetidine-3,4′-pyrido[3,4-b]indole]-2′(1′H)-carboxamide]	683
CCS(=O)(=O)N1CCC2(CC1)CN(S(=O)(=O)c1ccc(C)cc1)[C@@H](CO)c1[nH]c3cc(OC)ccc3c12 [Compound 124, (R)-(1-(ethylsulfony1)-7′-methoxy-2′-tosyl-1′,2′,3′,9′-tetrahydrospiro [piperidine-4,4′-pyrido[3,4-b]indol]-1′-yl)methanol]	880
